This is an account of results in patent EP1056778B1, “G PROTEIN-COUPLED RECEPTOR ANTAGONISTS” (priority 1998, dated 1999).

Assay [1] concerns the target CXCR4 (Homo sapiens, UniProt P61073). Nature of the assay: Inhibition of SDF-1α-induced intracellular calcium release (Fura-2/AM, HeLa and U87 cells expressing CXCR4). Format: cell-based. Conditions: for Concentration, required for complete inhibition of [Ca^2+ I] release: Table 3, peptides from second transmembrane domain of CXCR4; for Concentration, required for complete inhibition of [Ca ^2+ i] release: Table 1. As for the experimental part: The effect of the peptides on CXCR4-mediated calcium fluxes in HeLa cells that naturally express the CXCR4 receptor and U87 cells stably expressing the CXCR4 receptor was tested as follows. Cells grown on Nunc cover glass chamber slides were incubated with 1 micromolar Fura-2/AM for 20 min in a CO2-incubator, rinsed with PBS and mounted on the stage of a Zeiss Axiovert inverted microscope. [Ca^2+]i measurements were performed using an Attofluor digital imaging system (Atto Instruments, Rockville, MD). Fluorescence of Fura was excited at alternating wavelength of 340 and 380 nm. Fluorescence was monitored by an intensified CCD camera using a 505 cut-off filter. Calibrations of [Ca^2+]i signals were performed using Ca^2+ standards containing 1 micromolar Fura. CXCR4 antagonists were tested on HeLa cells and U87 cells. Stromal cell-derived factor-1α (SDF-1α) was used as a specific CXCR4 agonist.
CCR5 antagonists, which were used in selectivity studies as described below, were tested on HEK (human kidney […]) cells stably expressing the CCR5 receptor and RANTES was used as an agonist. The antagonist activity of the peptides was evaluated by measuring the inhibition of agonist-evoked intracellular Ca^2+i release. These measurements were carried out in Fura-2/AM-treated cells, utilizing an Attofluor digital imaging system as described above. The agonist was SDF-1α.
Further optimization and structure-activity studies allowed to obtain antagonists derived from all but the third and fifth transmembrane domains (Table 2). Table 1. Activity of synthetic peptides corresponding to predicted transmembrane domains of CXCR4 in inhibition of SDF-1α-induced intracellular calcium release.
Table 2. Biological activity of CXCR4 antagonists derived from different transmembrane domains. Anti signaling activity was determined in inhibition of SDF-1α-induced intracellular calcium release. Anti-HIV-1 activity was assessed in cytoprotection assay utilizing CEM-SS cells infected with HIV-1RF.
For orientation: Calcium assays in cells follow changes in intracellular calcium, usually with a dye or a luminescent sensor.

Assay [2] has as its target T1, CCKAR (Rattus norvegicus, UniProt P30551).
T1 construct: expressed in transfected cells; host or cells: CHO cells
T1 sequence (P30551 1-444): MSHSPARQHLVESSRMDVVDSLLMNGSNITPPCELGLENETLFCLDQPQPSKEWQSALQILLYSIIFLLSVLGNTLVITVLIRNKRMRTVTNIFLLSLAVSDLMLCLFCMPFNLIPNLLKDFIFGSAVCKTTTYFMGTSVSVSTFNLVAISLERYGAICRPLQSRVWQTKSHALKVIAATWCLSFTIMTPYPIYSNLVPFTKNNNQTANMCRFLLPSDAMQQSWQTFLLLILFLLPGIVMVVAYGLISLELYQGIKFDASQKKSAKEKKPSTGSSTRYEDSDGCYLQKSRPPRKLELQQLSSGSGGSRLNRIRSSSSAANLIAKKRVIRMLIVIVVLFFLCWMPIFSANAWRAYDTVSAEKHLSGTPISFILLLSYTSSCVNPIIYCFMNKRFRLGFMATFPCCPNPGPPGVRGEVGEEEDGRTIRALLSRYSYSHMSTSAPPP
Nature of the assay: Inhibition of binding of fluorescent agonist RG-CCK-8, quantitative confocal laser scanning microscopy.

Assay [3] has as its system HIV-1RF. In words: Anti-HIV-1 cytoprotection assay, CEM-SS cells infected with HIV-1 strain RF. Format: cell-based.
Setting [4] is: cytoprotection assay, CEM-SS cells infected with HIV-1RF, read-out: EC50 in anti-HIV-1 assay.
Where [5] appears, read: SDF-1α-induced intracellular calcium release.

Broadly, the IC50 is the concentration needed to halve the response being measured. The EC50 is the midpoint of the concentration-response curve.

Where two headings read alike, the source gives them in different places. Where a SMILES comes first, the peptide text is derived from it. Where no end group is shown, it is not given here. K(Rhod) = not defined here

Chain of CXCR4 (P61073 whole entry, the tested form may be a part): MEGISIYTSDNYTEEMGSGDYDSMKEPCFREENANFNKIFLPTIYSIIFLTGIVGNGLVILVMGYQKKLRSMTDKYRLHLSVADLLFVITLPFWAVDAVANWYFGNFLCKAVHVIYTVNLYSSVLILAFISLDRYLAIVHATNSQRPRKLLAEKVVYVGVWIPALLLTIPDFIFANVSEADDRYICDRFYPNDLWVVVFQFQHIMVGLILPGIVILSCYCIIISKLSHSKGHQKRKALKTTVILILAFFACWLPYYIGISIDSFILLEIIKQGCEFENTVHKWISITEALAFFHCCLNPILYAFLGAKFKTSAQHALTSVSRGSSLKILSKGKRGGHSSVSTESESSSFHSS

`CC[C@H](C)[C@H](NC(=O)[C@@H](NC(=O)[C@H](Cc1ccccc1)NC(=O)[C@H](CC(C)C)NC(=O)[C@H](CC(C)C)NC(C)=O)C(C)C)C(=O)N[C@H](C(=O)N[C@@H](CC(C)C)C(=O)N1CCC[C@H]1C(=O)N[C@@H](Cc1ccccc1)C(=O)N[C@@H](Cc1c[nH]c2ccccc12)C(=O)N[C@@H](C)C(=O)N[C@H](C(=O)N[C@@H](CC(=O)O)C(=O)N[C@@H](C)C(=O)N[C@H](C(=O)N[C@@H](C)C(=O)N[C@@H](CC(N)=O)C(=O)N[C@@H](CC(=O)O)C(=O)N[C@@H](CC(=O)O)C(=O)O)C(C)C)C(C)C)[C@@H](C)O` [AcF-2-5]: in assay [1], the “Concentration, required for complete inhibition of [Ca^2+ I] release” value is reported as 10 µM.

For the molecule `CC[C@H](C)[C@H](NC(=O)[C@H](CCC(N)=O)NC(=O)[C@H](CC(C)C)NC(=O)[C@H](C)NC(=O)[C@H](CO)NC(=O)[C@H](CCC(N)=O)NC(=O)[C@H](Cc1c[nH]c2ccccc12)NC(=O)[C@H](CCC(=O)O)NC(=O)[C@H](CC(=O)O)NC(=O)[C@@H](N)CC(=O)O)C(=O)N[C@@H](CC(C)C)C(=O)N[C@@H](CC(C)C)C(=O)N[C@@H](Cc1ccc(O)cc1)C(=O)N[C@@H](CO)C(=O)N[C@H](C(=O)N[C@H](C(=O)N[C@@H](Cc1ccccc1)C(=O)N[C@@H](CC(C)C)C(=O)N[C@@H](CC(C)C)C(=O)N[C@@H](CO)C(=O)N[C@H](C(=O)NCC(=O)N[C@@H](CC(N)=O)C(=O)N[C@H](C(=O)N[C@@H](CC(C)C)C(=O)N[C@H](C(=O)N[C@H](C(=O)N[C@H](C(=O)N[C@H](C(=O)O)C(C)C)[C@@H](C)O)[C@@H](C)CC)C(C)C)[C@@H](C)O)C(C)C)[C@@H](C)CC)[C@@H](C)CC` [CCKAR-1-6] (H-DDEWQSALQILLYSIIFLLSVGNTLVITV-OH), in assay [2] (fluorescent agonist rhodamine green CCK-8, read-out: IC50 in inhibiton of RG-CCK-8 binding), the half-maximal inhibitory concentration (IC50) turned out to be 20 µM.

In turn, `CC[C@H](C)[C@H](NC(=O)CNC(=O)[C@@H]1CCCN1C(=O)[C@H](CC(C)C)NC(=O)[C@H](CC(C)C)NC(=O)[C@H](Cc1ccccc1)NC(=O)[C@H](CC(C)C)NC(=O)[C@@H](NC(=O)[C@H](CC(C)C)NC(=O)[C@H](CC(C)C)NC(=O)[C@H](CC(C)C)NC(=O)[C@H](Cc1ccccc1)NC(=O)[C@@H](NC(=O)[C@H](CCC(N)=O)NC(=O)[C@H](CC(=O)O)NC(=O)[C@@H](N)CC(=O)O)[C@@H](C)O)[C@@H](C)CC)C(=O)N[C@H](C(=O)N[C@@H](CCSC)C(=O)N[C@H](C(=O)N[C@H](C(=O)N[C@@H](C)C(=O)N[C@@H](Cc1ccc(O)cc1)C(=O)NCC(=O)N[C@@H](CC(C)C)C(=O)O)C(C)C)C(C)C)C(C)C` [CCKAR-5-3] (H-DDQTFLLLILFLLPGIVMVVAYGL-OH) yielded an IC50 in assay [2] greater than 50 µM.

As for `CC[C@H](C)[C@H](N)C(=O)N[C@H](C(=O)N[C@H](C(=O)N[C@@H](CC(C)C)C(=O)N[C@@H](Cc1ccccc1)C(=O)N[C@@H](Cc1ccccc1)C(=O)N[C@@H](CC(C)C)C(=O)N[C@@H](CS)C(=O)N[C@@H](Cc1c[nH]c2ccccc12)C(=O)N[C@@H](CCSC)C(=O)N1CCC[C@H]1C(=O)N[C@H](C(=O)N[C@@H](Cc1ccccc1)C(=O)N[C@@H](CO)C(=O)N[C@@H](C)C(=O)N[C@@H](CC(N)=O)C(=O)N[C@@H](C)C(=O)N[C@@H](Cc1c[nH]c2ccccc12)C(=O)N[C@@H](CCCNC(=N)N)C(=O)N[C@@H](C)C(=O)N[C@@H](Cc1ccc(O)cc1)C(=O)N[C@@H](CC(=O)O)C(=O)N[C@H](C(=O)N[C@H](C(=O)N[C@@H](CC(=O)O)C(=O)N[C@@H](CC(=O)O)C(=O)O)C(C)C)[C@@H](C)O)[C@@H](C)CC)C(C)C)C(C)C` [CCKAR-6-4] (H-IVVLFFLCWMPIFSANAWRAYDTVDD-OH), the IC50 in assay [2] was greater than 50 µM.

With `CC[C@H](C)[C@H](NC(=O)[C@@H](NC(=O)[C@H](Cc1ccccc1)NC(=O)[C@H](CC(C)C)NC(=O)[C@@H](N)CC(C)C)C(C)C)C(=O)N[C@H](C(=O)N[C@@H](CC(C)C)C(=O)N1CCC[C@H]1C(=O)N[C@@H](Cc1ccccc1)C(=O)N[C@@H](Cc1c[nH]c2ccccc12)C(=O)N[C@@H](C)C(=O)N[C@H](C(=O)N[C@@H](CC(=O)O)C(=O)N[C@@H](C)C(=O)N[C@H](C(=O)N[C@@H](C)C(=O)N[C@@H](CC(N)=O)C(=O)N[C@@H](Cc1c[nH]c2ccccc12)C(=O)N[C@@H](Cc1ccc(O)cc1)C(=O)N[C@@H](Cc1ccccc1)C(=O)NCC(=O)N[C@@H](CC(N)=O)C(=O)N[C@@H](CC(=O)O)C(=O)N[C@@H](CC(=O)O)C(=O)O)C(C)C)C(C)C)[C@@H](C)O` [Peptide F-2-2] (H-LLFVITLPFWAVDAVANWYFGNDD-OH), the EC50 in assay [3] (setting [4]) turned out to be 2.27 µM.

`CC[C@H](C)[C@H](NC(=O)[C@H](Cc1ccccc1)NC(=O)[C@H](CC(=O)O)NC(=O)[C@@H]1CCCN1C(=O)[C@@H](NC(=O)[C@@H](NC(=O)[C@H](CC(C)C)NC(=O)[C@H](CC(C)C)NC(=O)[C@H](CC(C)C)NC(=O)[C@H](C)NC(=O)[C@@H]1CCCN1C(=O)[C@@H](NC(=O)[C@H](Cc1c[nH]c2ccccc12)NC(=O)[C@@H](NC(=O)CNC(=O)[C@@H](NC(=O)[C@H](Cc1ccc(O)cc1)NC(=O)[C@@H](N)C(C)C)C(C)C)C(C)C)[C@@H](C)CC)[C@@H](C)O)[C@@H](C)CC)C(=O)N[C@@H](Cc1ccccc1)C(=O)N[C@@H](C)C(=O)N[C@@H](CC(N)=O)C(=O)N[C@@H](CC(=O)O)C(=O)N[C@@H](CC(=O)O)C(=O)O` [Peptide F-4-2] (H-VYVGVWIPALLLTIPDFIFANDD-OH): the EC50 in assay [3] (setting [4]) is 0.3 µM.

As to `CC[C@H](C)[C@H](NC(=O)CNC(=O)[C@@H](NC(=O)[C@H](Cc1ccc(O)cc1)NC(=O)[C@H](Cc1ccc(O)cc1)NC(=O)[C@@H]1CCCN1C(=O)[C@H](CC(C)C)NC(=O)[C@H](Cc1c[nH]c2ccccc12)NC(=O)[C@H](CS)NC(=O)[C@H](C)NC(=O)[C@H](Cc1ccccc1)NC(=O)[C@H](Cc1ccccc1)NC(=O)[C@H](C)NC(=O)[C@H](CC(C)C)NC(=O)[C@@H](NC(=O)[C@H](CC(C)C)NC(=O)[C@@H](NC(=O)[C@@H](N)C(C)C)[C@@H](C)CC)[C@@H](C)CC)[C@@H](C)CC)C(=O)N[C@@H](CO)C(=O)N[C@H](C(=O)N[C@@H](CC(=O)O)C(=O)O)[C@@H](C)CC` [Peptide F-6-1] (H-VILILAFFACWLPYYIGISID-OH), the EC50 in assay [3] (setting [4]) is greater than 50 µM.

In the case of `CC[C@H](C)[C@H](NC(=O)[C@@H]1CCCN1C(=O)[C@H](CC(N)=O)NC(=O)[C@H](CC(C)C)NC(=O)[C@H](CS)NC(=O)[C@H](CS)NC(=O)[C@H](Cc1c[nH]cn1)NC(=O)[C@H](Cc1ccccc1)NC(=O)[C@H](Cc1ccccc1)NC(=O)[C@H](C)NC(=O)[C@H](CC(C)C)NC(=O)[C@H](C)NC(=O)[C@H](CCC(=O)O)NC(=O)[C@H](CC(=O)O)NC(=O)[C@@H](N)CC(=O)O)C(=O)N[C@@H](CC(C)C)C(=O)N[C@@H](Cc1ccc(O)cc1)C(=O)N[C@@H](C)C(=O)N[C@@H](Cc1ccccc1)C(=O)N[C@@H](CC(C)C)C(N)=O` [Peptide F-7-3] (H-DDEALAFFHCCLNPILYAFL-NH2; N-terminus assumed), the “Concentration, required for inhibition of signal transduction” value in assay [1] (Table 2, SDF-1α-induced intracellular calcium release) is on record as 25 µM. In assay [3] (1RF), this molecule displayed an EC50 of 3.27 µM.

Turning to “ACLLFVITLPFWAVDAVANWYFG NDDK(Rhod) D-OH (ACLLFVITLPFWAVDAVANWYFGNDD-{K(Rhod)-Asp-OH}; reading uncertain; also: printed as ACLLFVITLPFWAVDAVANWYFG NDDK(Rhod) D-OH) [Rhod - F-2]”, the “Concentration, required for complete inhibition of [Ca^2+ I] release” value in assay [1] is given as 8 µM.

For the molecule “ALAFFHCCLNPILYAFLGAK-NH2 (cysteine pairing not given here) [Peptide F-7-1]”, the “Concentration, required for complete inhibition of [Ca ^2+ i] release” value in assay [1] (setting [5]) is listed as greater than 100 µM.

“HIMVGLILPGIVILSCYCIII-NH2 (cysteine pairing not given here) [Peptide F-5-1]”: the “Concentration, required for complete inhibition of [Ca ^2+ i] release” value in assay [1] (setting [5]) is reported as greater than 50 µM.
